From patent publication US12691112B2, “FGFR tyrosine kinase inhibitors for the treatment of urothelial carcinoma” (Janssen Pharmaceutica NV, priority 2019, dated 2026)
Where two headings read alike, the source gives them in different places.

Test system: subjects with metastatic or surgically unresectable urothelial cancer
Conditions: all-causality

## COc1cc(OC)cc(N(CCNC(C)C)c2ccc3ncc(-c4cnn(C)c4)nc3c2)c1 [erdafitinib, N-(3,5-dimethoxy-phenyl)-N′-(1-methylethyl)-N-[3-(1-methyl-1H-pyrazol-4-yl)quinoxalin-6-yl]ethane-1,2-diamine]
8 mg continuous, n = 99
  Constipation, grade ≥ 3: 1 no.
  Decreased appetite, any grade: 38 no.
  Decreased appetite, grade 1: 18 no.
  Decreased appetite, grade 2: 20 no.
  Decreased appetite, grade ≥ 3: 0 no.
  Diarrhea, any grade: 50 no.
  Diarrhea, grade 1: 31 no.
  Diarrhea, grade 2: 15 no.
  Diarrhea, grade ≥ 3: 4 no.
  Dry eye, any grade: 19 no.
  Dry eye, grade 1: 14 no.
  Dry eye, grade 2: 4 no.
  Dry eye, grade ≥ 3: 1 no.
  Dry mouth, any grade: 45 no.
  Dry mouth, grade 1: 34 no.
  Dry mouth, grade 2: 11 no.
  Dry mouth, grade ≥ 3: 0 no.
  Dry skin, any grade: 32 no.
  Dry skin, grade 1: 24 no.
  Dry skin, grade 2: 8 no.
  Dry skin, grade ≥ 3: 0 no.
  Dysgeusia, any grade: 37 no.
  Dysgeusia, grade 1: 23 no.
  Dysgeusia, grade 2: 13 no.
  Dysgeusia, grade ≥ 3: 1 no.
  Dyspepsia, any grade: 11 no.
  Dyspepsia, grade 1: 10 no.
  Dyspepsia, grade 2: 1 no.
  Dyspepsia, grade ≥ 3: 0 no.
  Dyspnea, any grade: 8 no.
  Dyspnea, grade 1: 4 no.
  Dyspnea, grade 2: 2 no.
  Dyspnea, grade ≥ 3: 2 no.
  Fatigue, any grade: 32 no.
  Fatigue, grade 1: 12 no.
  Fatigue, grade 2: 18 no.
  Fatigue, grade ≥ 3: 2 no.
  Hand-foot syndrome, any grade: 23 no.
  Hand-foot syndrome, grade 1: 6 no.
  Hand-foot syndrome, grade 2: 12 no.
  Hand-foot syndrome, grade ≥ 3: 5 no.
  Hematuria, any grade: 10 no.
  Hematuria, grade 1: 7 no.
  Hematuria, grade 2: 1 no.
  Hematuria, grade ≥ 3: 2 no.
  Hyperphosphatemia, any grade: 76 no.
  Hyperphosphatemia, grade 1: 53 no.
  Hyperphosphatemia, grade 2: 21 no.
  Hyperphosphatemia, grade ≥ 3: 2 no.
  Hypomagnesemia, any grade: 10 no.
  Hypomagnesemia, grade 1: 9 no.
  Hypomagnesemia, grade 2: 1 no.
  Hypomagnesemia, grade ≥ 3: 0 no.
  Hyponatremia, any grade: 12 no.
  Hyponatremia, grade 1: 1 no.
  Hyponatremia, grade 2: 0 no.
  Hyponatremia, grade ≥ 3: 11 no.
  Insomnia, any grade: 7 no.
  Insomnia, grade 1: 4 no.
  Insomnia, grade 2: 3 no.
  Insomnia, grade ≥ 3: 0 no.
  Lacrimation increased, any grade: 11 no.
  Lacrimation increased, grade 1: 8 no.
  Lacrimation increased, grade 2: 3 no.
  Lacrimation increased, grade ≥ 3: 0 no.
  Nail dystrophy, any grade: 16 no.
  Nail dystrophy, grade 1: 5 no.
  Nail dystrophy, grade 2: 5 no.
  Nail dystrophy, grade ≥ 3: 6 no.
  Nausea, any grade: 20 no.
  Nausea, grade 1: 13 no.
  Nausea, grade 2: 6 no.
  Nausea, grade ≥ 3: 1 no.
  Onycholysis, any grade: 18 no.
  Onycholysis, grade 1: 6 no.
  Onycholysis, grade 2: 10 no.
  Onycholysis, grade ≥ 3: 2 no.
  Onychomadesis, any grade: 7 no.
  Onychomadesis, grade 1: 2 no.
  Onychomadesis, grade 2: 5 no.
  Onychomadesis, grade ≥ 3: 0 no.
  Oropharyngeal pain, any grade: 10 no.
  Oropharyngeal pain, grade 1: 8 no.
  Oropharyngeal pain, grade 2: 1 no.
  Oropharyngeal pain, grade ≥ 3: 1 no.
  Pain in extremity, any grade: 12 no.
  Pain in extremity, grade 1: 10 no.
  Pain in extremity, grade 2: 2 no.
  Pain in extremity, grade ≥ 3: 0 no.
  Paronychia, any grade: 17 no.
  Paronychia, grade 1: 3 no.
  Paronychia, grade 2: 11 no.
  Paronychia, grade ≥ 3: 3 no.
  Peripheral edema, any grade: 9 no.
  Peripheral edema, grade 1: 5 no.
  Peripheral edema, grade 2: 3 no.
  Peripheral edema, grade ≥ 3: 1 no.
  Pyrexia, any grade: 13 no.
  Pyrexia, grade 1: 8 no.
  Pyrexia, grade 2: 5 no.
  Pyrexia, grade ≥ 3: 0 no.
  Retinal detachment, any grade: 5 no.
  Retinal detachment, grade 1: 3 no.
  Retinal detachment, grade 2: 2 no.
  Retinal detachment, grade ≥ 3: 0 no.
  Stomatitis, any grade: 57 no.
  Stomatitis, grade 1: 21 no.
  Stomatitis, grade 2: 26 no.
  Stomatitis, grade ≥ 3: 10 no.
  Urinary tract infection, any grade: 16 no.
  Urinary tract infection, grade 1: 0 no.
  Urinary tract infection, grade 2: 11 no.
  Urinary tract infection, grade ≥ 3: 5 no.
  Vision blurred, any grade: 17 no.
  Vision blurred, grade 1: 10 no.
  Vision blurred, grade 2: 7 no.
  Vision blurred, grade ≥ 3: 0 no.
  Vomiting, any grade: 13 no.
  Vomiting, grade 1: 10 no.
  Vomiting, grade 2: 1 no.
  Vomiting, grade ≥ 3: 2 no.
  Weight decreased, any grade: 15 no.
  Weight decreased, grade 1: 7 no.
  Weight decreased, grade 2: 8 no.
  Weight decreased, grade ≥ 3: 0 no.
10 mg intermittent, n = 33
  Abdominal pain, any grade: 5 no.
  Abdominal pain, grade 1: 2 no.
  Abdominal pain, grade 2: 2 no.
  Abdominal pain, grade ≥ 3: 1 no.
  Alanine aminotransferase increased, any grade: 1 no.
  Alanine aminotransferase increased, grade 1: 0 no.
  Alanine aminotransferase increased, grade 2: 1 no.
  Alanine aminotransferase increased, grade ≥ 3: 0 no.
  Alopecia, any grade: 4 no.
  Alopecia, grade 1: 2 no.
  Alopecia, grade 2: 2 no.
  Alopecia, grade ≥ 3: 0 no.
  Anemia, any grade: 8 no.
  Anemia, grade 1: 1 no.
  Anemia, grade 2: 1 no.
  Anemia, grade ≥ 3: 6 no.
  Arthralgia, any grade: 7 no.
  Arthralgia, grade 1: 3 no.
  Arthralgia, grade 2: 2 no.
  Arthralgia, grade ≥ 3: 2 no.
  Aspartate aminotransferase increased, any grade: 2 no.
  Aspartate aminotransferase increased, grade 1: 2 no.
  Aspartate aminotransferase increased, grade 2: 0 no.
  Aspartate aminotransferase increased, grade ≥ 3: 0 no.
  Asthenia, any grade: 10 no.
  Asthenia, grade 1: 5 no.
  Asthenia, grade 2: 3 no.
  Asthenia, grade ≥ 3: 2 no.
  Back pain, any grade: 5 no.
  Back pain, grade 1: 1 no.
  Back pain, grade 2: 1 no.
  Back pain, grade ≥ 3: 3 no.
  Blood creatinine increased, any grade: 4 no.
  Blood creatinine increased, grade 1: 3 no.
  Blood creatinine increased, grade 2: 1 no.
  Blood creatinine increased, grade ≥ 3: 0 no.
  Conjunctivitis, any grade: 4 no.
  Conjunctivitis, grade 1: 3 no.
  Conjunctivitis, grade 2: 1 no.
  Conjunctivitis, grade ≥ 3: 0 no.
  Constipation, any grade: 14 no.
  Constipation, grade 1: 8 no.
  Constipation, grade 2: 6 no.
  Constipation, grade ≥ 3: 0 no.
  Decreased appetite, any grade: 11 no.
  Decreased appetite, grade 1: 4 no.
  Decreased appetite, grade 2: 6 no.
